Tests used:
Assay type in all cases: in vivo
[1] = tested on: Abutilon theophrasti; experiment: Pre-emergence herbicidal activity, glasshouse pot test; conditions: pre-emergence spray, rate 1000 g/ha, evaluated after 13 days, scale 0-5
Description: (§1) Seeds of a variety of test species were sown in standard soil in pots. After cultivation for one day (pre-emergence) under controlled conditions in a glasshouse (at 24/16° C., day/night; 14 hours light; 65% humidity), the plants were sprayed with an aqueous spray solution derived from the formulation of the technical active ingredient in acetone/water (50:50) solution containing 0.5% Tween 20 (polyoxyethelyene sorbitan monolaurate, CAS RN 9005-64-5). The test plants were then grown in a glasshouse under controlled conditions (at 24/16° C., day/night; 14 hours light; 65% humidity) and watered twice daily. After 13 days, the test was evaluated (5=total damage to plant; 0=no damage to plant).
(§2) ABUTH=Abutilon theophrasti; SOLNI=Solanum nigrum; AMARE=Amaranthus retroflexus; SETFA=Setaria faberi; ALOMY=Alopecurus myosuroides; ECHCG=Echinochloa crus-galli, ZEAMX=zea mays.

[2] = tested on: Alopecurus myosuroides; experiment: as above; conditions: pre-emergence spray, rate 1000 g/ha, evaluated after 13 days, scale 0-5
Description: as §1, §2

[3] = tested on: Amaranthus retroflexus; experiment: as above; conditions: pre-emergence spray, rate 1000 g/ha, evaluated after 13 days, scale 0-5
Description: as §1, §2

[4] = tested on: Echinochloa crus-galli; experiment: as above; conditions: pre-emergence spray, rate 1000 g/ha, evaluated after 13 days, scale 0-5
Description: as §1, §2

[5] = tested on: Setaria faberi; experiment: as above; conditions: pre-emergence spray, rate 1000 g/ha, evaluated after 13 days, scale 0-5
Description: as §1, §2

[6] = tested on: zea mays; experiment: as above; conditions: pre-emergence spray, rate 1000 g/ha, evaluated after 13 days, scale 0-5
Description: as §1, §2

[7] = tested on: Abutilon theophrasti; experiment: Post-emergence herbicidal activity, glasshouse pot test; design: key: 0 = no damage to plant, 5 = total damage to plant; conditions: Application post-emergence, rate 1000 g/ha, evaluated after 13 days
Description: (§3) Seeds of a variety of test species were sown in standard soil in pots. After 8 days cultivation (post-emergence) under controlled conditions in a glasshouse (at 24/16° C., day/night; 14 hours light; 65% humidity), the plants were sprayed with an aqueous spray solution derived from the formulation of the technical active ingredient in acetone/water (50:50) solution containing 0.5% Tween 20 (polyoxyethelyene sorbitan monolaurate, CAS RN 9005-64-5). The test plants were then grown in a glasshouse under controlled conditions (at 24/16° C., day/night; 14 hours light; 65% humidity) and watered twice daily. After 13 days, the test was evaluated (5=total damage to plant; 0=no damage to plant).
as §2

[8] = tested on: Alopecurus myosuroides; experiment: as above; design: key: 0 = no damage to plant, 5 = total damage to plant; conditions: Application post-emergence, rate 1000 g/ha, evaluated after 13 days
Description: as §3, §2

[9] = tested on: Amaranthus retroflexus; experiment: as above; design: key: 0 = no damage to plant, 5 = total damage to plant; conditions: Application post-emergence, rate 1000 g/ha, evaluated after 13 days
Description: as §3, §2

[10] = tested on: zea mays; experiment: as above; design: key: 0 = no damage to plant, 5 = total damage to plant; conditions: Application post-emergence, rate 1000 g/ha, evaluated after 13 days
Description: as §3, §2

[11] = tested on: Echinochloa crus-galli; experiment: as above; design: key: 0 = no damage to plant, 5 = total damage to plant; conditions: Application post-emergence, rate 1000 g/ha, evaluated after 13 days
Description: as §3, §2

[12] = tested on: Setaria faberi; experiment: as above; design: key: 0 = no damage to plant, 5 = total damage to plant; conditions: Application post-emergence, rate 1000 g/ha, evaluated after 13 days
Description: as §3, §2

SMILES | ABUTH damage score, application pre-emergence [1] | ALOMY damage score, application pre-emergence [2] | AMARE damage score, application pre-emergence [3] | ECHCG damage score, application pre-emergence [4] | SETFA damage score, application pre-emergence [5] | ZEAMX damage score, application pre-emergence [6] | ABUTH herbicidal damage score [7] | ALOMY herbicidal damage score [8] | AMARE herbicidal damage score [9] | ZEAMX herbicidal damage score [10] | ECHCG herbicidal damage score [11] | SETFA herbicidal damage score [12]
CC1=C(Cl)C(=O)N(c2cc(C(C)C)c(Cl)nn2)C1O (centres unmarked) [BF15] | 4 | 4 | 3 | 5 | 5 | 2 | 5 | 5 | 5 | 3 |  | 
COC1=C(C)C(O)N(c2cc(C(C)C)c(Cl)nn2)C1=O (centres unmarked) [BI28] | 4 | 4 | 4 | 5 | 5 | 3 | 5 | 5 | 5 | 3 |  | 
COC1=C(C)C(O)N(c2cc(C(C)(C)C)c(Cl)nn2)C1=O (centres unmarked) [BI32] | 4 | 4 | 3 | 5 | 5 | 4 | 5 | 5 | 5 | 4 |  | 
CC1=C(Cl)C(=O)N(c2cc(Cl)ncn2)C1O (centres unmarked) [CF1] | 1 | 3 | 5 | 4 | 0 | 2 | 0 | 4 |  | 1 | 4 | 1
COC1=C(C)C(O)N(c2cc(C(C)(C)C)ncn2)C1=O (centres unmarked) [CI1] | 5 | 4 | 5 | 4 | 5 | 4 |  |  |  |  |  | 
COC1=C(C)C(O)N(c2cc(NC(C)C)ncn2)C1=O (centres unmarked) [CI4, N2-hydroxy-1-[6-(isopropylamino)pyrimidin-4-yl]-4-methoxy-3-methyl-2H-pyrrol-5-one] | 0 | 0 | 0 | 0 | 0 | 0 |  |  |  |  |  | 
COC1=C(C)C(O)N(c2cc(C(C)(C)C#N)ncn2)C1=O (centres unmarked) [CI6] | 5 | 3 | 5 | 5 | 5 | 3 |  |  |  |  |  | 
COC1=C(C)C(O)N(c2cc(C(C)(C)F)ncn2)C1=O (centres unmarked) [CI7] | 5 | 3 | 5 | 4 | 5 | 1 |  |  |  |  |  | 
COC1=C(C)C(O)N(c2cc(C(C)(F)F)ncn2)C1=O (centres unmarked) [CI8] | 5 | 3 | 5 | 4 | 5 | 2 |  |  |  |  |  | 
COC1=C(C)C(O)N(c2cc(N(C)C)ncn2)C1=O (centres unmarked) [CI9] | 2 | 1 | 3 | 1 | 1 | 0 |  |  |  |  |  | 
